Values joined by “and” are separate entries in the source; they are usually repeats but may differ in a detail not shown here. Identical values can stand only once. Like-named read-outs stand apart in the source and are kept apart here. Bridge positions count the residues as written; N and C are the ends. Square brackets hold non-standard residues; d marks the D form. Peptide text beside a SMILES is read from it. dOrn = NCCC[C@@H](N)C(=O)O
Columns and labels:
[1] = system: guinea pig ileum; conditions: for overall agonist character: conclusion of Example 7
[2] = system: guinea pig ileum; format: cell-based
Text: […]. […] […]

[3] = target: T1, μ receptors (Homo sapiens, UniProt P35372); experiment: Binding to μ opiate receptors by inhibition of [3H]-DAMGO
Experimental: (§1) The relative affinity and selectivity for the μ receptor over the δ and κ receptors of the synthesized peptides were tested and compared.

[4] = system: mice; conditions: it injection
[5] = system: mice
[6] = system: mice; experiment: Analgesia in mice after IV injection; format: in vivo
[7] = target: κ receptors (Homo sapiens, UniProt P41145); conditions: cited from earlier work; for Ki: values obtained from (7) or (20), read-out: Receptor Binding Ki κ
[8] = target: T2, δ receptors (Homo sapiens, UniProt P41143); conditions: cited from earlier work
[9] = target: T2, δ receptors; experiment: Binding to δ opiate receptors by inhibition of 3H-pCl-DPDPE; conditions: FIG. 1 set of 20 pin-synthesized peptides
Experimental: as §1

[10] = target: T1, μ receptors; conditions: values obtained from (7) or (20); read-out: Receptor Binding Ki μ; cited from earlier work
[11] = system: mice; conditions: from reference (24); cited from earlier work
[12] = untreated guinea pig ileum, read-out: agonist activity IC50 in the untreated ileum
[13] = mean±SEM, read-out: IC50 inhibiting electrically-induced contractions of the guinea pig ileum
[14] = methods of Example 3, route not given

κ receptors, sequence (P41145 whole entry): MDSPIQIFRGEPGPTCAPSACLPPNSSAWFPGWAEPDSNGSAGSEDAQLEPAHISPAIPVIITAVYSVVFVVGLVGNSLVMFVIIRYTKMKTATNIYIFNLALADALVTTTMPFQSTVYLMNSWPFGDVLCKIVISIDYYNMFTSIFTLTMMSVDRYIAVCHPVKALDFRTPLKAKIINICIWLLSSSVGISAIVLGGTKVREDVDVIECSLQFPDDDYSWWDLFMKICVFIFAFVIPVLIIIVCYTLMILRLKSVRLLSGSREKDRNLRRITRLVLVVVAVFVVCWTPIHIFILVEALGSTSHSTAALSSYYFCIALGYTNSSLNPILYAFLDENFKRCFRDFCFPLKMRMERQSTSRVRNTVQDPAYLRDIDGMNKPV
T1 sequence (P35372 whole entry): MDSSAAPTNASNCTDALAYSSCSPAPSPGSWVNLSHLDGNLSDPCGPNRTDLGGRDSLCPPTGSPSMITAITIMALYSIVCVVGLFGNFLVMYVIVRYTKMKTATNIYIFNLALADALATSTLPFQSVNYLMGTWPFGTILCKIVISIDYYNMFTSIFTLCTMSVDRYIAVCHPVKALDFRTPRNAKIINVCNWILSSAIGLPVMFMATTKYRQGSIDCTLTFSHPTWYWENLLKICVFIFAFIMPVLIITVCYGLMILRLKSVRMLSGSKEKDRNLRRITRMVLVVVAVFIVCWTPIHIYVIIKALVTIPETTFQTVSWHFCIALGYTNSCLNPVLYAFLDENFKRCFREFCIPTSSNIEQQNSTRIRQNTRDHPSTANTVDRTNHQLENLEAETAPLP
T2 sequence (P41143 whole entry): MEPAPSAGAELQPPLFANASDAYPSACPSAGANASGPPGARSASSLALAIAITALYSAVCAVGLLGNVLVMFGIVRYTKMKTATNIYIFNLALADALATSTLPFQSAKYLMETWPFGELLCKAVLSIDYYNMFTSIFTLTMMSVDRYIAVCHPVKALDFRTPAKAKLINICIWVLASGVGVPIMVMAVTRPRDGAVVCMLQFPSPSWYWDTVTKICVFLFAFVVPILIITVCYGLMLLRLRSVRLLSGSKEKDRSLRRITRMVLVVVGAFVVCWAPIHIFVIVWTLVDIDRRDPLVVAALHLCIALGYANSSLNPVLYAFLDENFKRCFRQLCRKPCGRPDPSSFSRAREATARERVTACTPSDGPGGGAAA

N[C@@H](Cc1ccc(O)cc1)C(=O)N1CCC[C@H]1C(=O)N[C@@H](Cc1ccccc1)C(=O)N[C@@H](Cc1ccccc1)C(=O)O [SEQ ID NO:4, H-Tyr-Pro-Phe-Phe-OH]
activity after treatment with 20 nM beta-chlornaltrexamine ([1]; B-CNA treated ileum): antagonist activity | overall agonist character [1]: partial agonist activity | IC50 [2, 12]: 20 µM

N[C@@H](Cc1ccc(O)cc1)C(=O)N[C@@H]1CCCNC(=O)[C@H](Cc2ccccc2)NC(=O)[C@H](Cc2c[nH]c3ccccc23)NC1=O [SEQ ID NO:15, H-Tyr-c-[D-Orn-Trp-Phe]] (H-Y[dOrn]WF; lactam 2-C)
μ receptor affinity higher than the peptide of SEQ ID NO:1 [3]: about 4 fold

NC(=O)[C@H](Cc1ccccc1)NC(=O)[C@H](Cc1c[nH]c2ccccc12)NC(=O)[C@@H]1CCCN1C(=O)[C@@H](N)Cc1ccc(O)cc1 [SEQ ID NO:1, H-Tyr-Pro-Trp-Phe-NH2]
ED50 analgesia [4]: 0.8 µg | IC50 [2, 13]: 0.0036 ± 0.0003 µM | effect of antagonists on the peptide's effect in guinea pig ileum ([2]; naloxone 0.5 μM and CTOP 0.5 μM, applied 1 min before or after, not by nor-binaltorphimine 20 nM): blocked and reversed | animals still analgesic 1 hr after injection ([5]; mice, 10-20 μg of the peptide, 1 hr): About half | effect of antagonists on analgesia induced by 10 μg of the peptide ([5]; naloxone 1 mg/kg sc, β-funaltrexamine 40 mg/kg 24 h pretreatment): reversed

CN1CC[C@]23c4c5ccc(O)c4O[C@H]2[C@@H](O)C=C[C@H]3[C@H]1C5 [morphine, reference compound]
ED50 ([6]; Mus musculus): 0.3 µmol/kg

C[C@@H](NC(=O)[C@@H](N)Cc1ccc(O)cc1)C(=O)NCC(=O)N(C)[C@@H](Cc1ccccc1)C(=O)NCCO [DAMGO, reference compound]
inhibition of electrically-induced contractions ([1]; 0.3 μM DAMGO, ileum treated with 20 nM B-CNA): 40% | IC50 [2, 13]: 0.0068 ± 0.0008 µM

NC(=O)[C@H](Cc1ccccc1)NC(=O)[C@H](Cc1ccccc1)NC(=O)[C@@H]1CCCN1C(=O)[C@@H](N)Cc1ccc(O)cc1 [SEQ ID NO:2, H-Tyr-Pro-Phe-Phe-NH2]
IC50 [2, 13]: 0.004 ± 0.0004 µM | ED50 analgesia ([5]; mice, icv injection): 8.4 µg

NC(=O)CNC(=O)[C@H](Cc1c[nH]c2ccccc12)NC(=O)[C@@H]1CCCN1C(=O)[C@@H](N)Cc1ccc(O)cc1 [Tyr-W-MIF-1, Tyr-Pro-Trp-Gly-NH2] (H-YPWG-NH2)
selectivity for μ over κ receptors ([7]; background, reference (7)): > 300 fold | Ki [7]: 22.3 µM | Binding Selectivity κ/μ ([7]; values obtained from (7)): 314 | selectivity for μ over δ receptors ([8]; background, reference (7)): > 200 fold | Ki ([8]; values obtained from (7) or (20), read-out: Receptor Binding Ki δ): 15.5 µM | Binding Selectivity δ/μ ([8]; values obtained from (7)): 219 | selectivity for μ over δ receptors (δ Ki/μ Ki) [9]: 240 fold | Ki [3]: 0.085 µM | Ki [10]: 0.0709 µM and 0.07 µM

N[C@@H](Cc1ccc(O)cc1)C(=O)N[C@@H]1CCCCNC(=O)[C@H](Cc2ccccc2)NC(=O)[C@H](Cc2c[nH]c3ccccc23)NC1=O [SEQ ID NO:13, H-Tyr-c-[D-Lys-Trp-Phe]] (H-Y[dK]WF; lactam 2-C)
ED50 analgesia [6]: 0.16 µmol/kg | μ receptor affinity higher than the peptide of SEQ ID NO:1 [3]: about 15 fold | IC50 in the guinea pig ileum assay (in words) [2]: subnanomolar | potency in the guinea pig ileum assay greater than SEQ ID NO:1 [2]: about 4 fold | analgesic potency IC50 [5, 14]: 0.3 µg | analgesic potency greater than SEQ ID NO:1 [5, 14]: about 10 fold

CSCC[C@H](NC(=O)[C@H](Cc1ccccc1)NC(=O)CNC(=O)CNC(=O)[C@@H](N)Cc1ccc(O)cc1)C(=O)O [Met-Enkephalin]
Ki [7]: 4.44 µM | ED50 analgesia [11]: 75 µg | duration of analgesic effects [11]: less than 10 min

N[C@@H](Cc1ccc(O)cc1)C(=O)N1CCC[C@H]1C(=O)N[C@@H](Cc1c[nH]c2ccccc12)C(=O)N[C@@H](Cc1ccccc1)C(=O)O [SEQ ID NO:3, H-Tyr-Pro-Trp-Phe-OH]
activity after treatment with 20 nM beta-chlornaltrexamine ([1]; B-CNA treated ileum): antagonist activity | overall agonist character [1]: partial agonist activity | inhibition of contractions by DAMGO after pretreatment with the peptide ([1]; peptide 20 μM 1 minute before 0.3 μM DAMGO, B-CNA treated ileum): 25% | IC50 [2, 12]: 5 µM
